From PubChem BioAssay AID1963829 (Molecular Pharmacology Branch, DTP, NCI, 2024)

Tested on: 935938-334-R-J1-PDC complex spheroid viability
Experiment: Anticancer human tumor 935938-334-R-J1-PDC patient-derived small intestine adenocarcinoma cell line growth inhibition [POLQ]
Settings: for IC50: curve of first compound; for viability, T/C: stronger effect = lower value; active = viability on the fitted dose curve at most 10% of control; inactive = the rest
Method in brief: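 Patient-derived tumour cells were co-cultured with HUVEC and mesenchymal stem cells as multicellular spheroids at 37 °C. They were treated with POLQ inhibitors (novobiocin, ART-558, RP6685) alone or combined with other agents. Top concentrations were at or near clinical Cmax (otherwise 10 microM; SN-38 at 1 microM), decreasing in half-log steps.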

[1] = second compound 0.0316 µM, first compound 0.0316 µM
[2] = second compound 0.0316 µM, first compound 0.1 µM
[3] = second compound 0.0316 µM, first compound 0.316 µM
[4] = second compound 0.0316 µM, first compound 1 µM
[5] = second compound 0.0316 µM, first compound 3.16 µM
[6] = second compound 0.0316 µM, first compound 10 µM
[7] = second compound 0.1 µM, first compound 0.0316 µM
[8] = second compound 0.1 µM, first compound 0.1 µM
[9] = second compound 0.1 µM, first compound 0.316 µM
[10] = second compound 0.1 µM, first compound 1 µM
[11] = second compound 0.1 µM, first compound 3.16 µM
[12] = second compound 0.1 µM, first compound 10 µM
[13] = second compound 0.316 µM, first compound 0.0316 µM
[14] = second compound 0.316 µM, first compound 0.1 µM
[15] = second compound 0.316 µM, first compound 0.316 µM
[16] = second compound 0.316 µM, first compound 1 µM
[17] = second compound 0.316 µM, first compound 3.16 µM
[18] = second compound 0.316 µM, first compound 10 µM
[19] = second compound 1 µM, first compound 0.0316 µM
[20] = second compound 1 µM, first compound 0.1 µM
[21] = second compound 1 µM, first compound 0.316 µM
[22] = second compound 1 µM, first compound 1 µM
[23] = second compound 1 µM, first compound 3.16 µM
[24] = second compound 1 µM, first compound 10 µM
[25] = second compound 3.16 µM, first compound 0.0316 µM
[26] = second compound 3.16 µM, first compound 0.1 µM
[27] = second compound 3.16 µM, first compound 0.316 µM
[28] = second compound 3.16 µM, first compound 1 µM
[29] = second compound 3.16 µM, first compound 3.16 µM
[30] = second compound 3.16 µM, first compound 10 µM
[31] = second compound 10 µM, first compound 0.0316 µM
[32] = second compound 10 µM, first compound 0.1 µM
[33] = second compound 10 µM, first compound 0.316 µM
[34] = second compound 10 µM, first compound 1 µM
[35] = second compound 10 µM, first compound 3.16 µM
[36] = second compound 10 µM, first compound 10 µM
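Note: spheroids exposed to drugs for seven days before viability read.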
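Throughout, for viability, T/C: 100% = DMSO vehicle control wells.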

CC1COCCN1c1cc(C2(O)CC3CCC(C2)O3)c2cnn(-c3ccn[nH]3)c2n1 (stereo not drawn) + COC1C(OC(N)=O)C(O)C(Oc2ccc3c(O)c(NC(=O)c4ccc(O)c(CC=C(C)C)c4)c(=O)oc3c2C)OC1(C)C
0.244 µM: IC50 (second compound 0.0316 µM)
0.097 µM: IC50 (second compound 10 µM)
0.216 µM: IC50 (second compound 1 µM)
inactive: viability, T/C [1] 82.5% | viability, T/C [2] 71.2% | viability, T/C [3] 43.8% | viability, T/C [4] 20.1% | viability, T/C [5] 14.7% | viability, T/C [6] 8.68% | viability, T/C [7] 114% | viability, T/C [8] 71.9% | viability, T/C [9] 36.4% | viability, T/C [10] 21.1% | viability, T/C [11] 18.7% | viability, T/C [12] 9.26% | viability, T/C [13] 75.7% | viability, T/C [14] 65.8% | viability, T/C [15] 30.4% | viability, T/C [16] 21.5% | viability, T/C [17] 16.8% | viability, T/C [18] 11.5% | viability, T/C [19] 79.1% | viability, T/C [20] 78.6% | viability, T/C [21] 35.8% | viability, T/C [22] 23.2% | viability, T/C [23] 13.5% | viability, T/C [24] 11.3% | viability, T/C [25] 102% | viability, T/C [26] 63.3% | viability, T/C [27] 36.5% | viability, T/C [28] 20.9% | viability, T/C [29] 15.1% | viability, T/C [30] 10.2% | viability, T/C [31] 88.2% | viability, T/C [32] 48.9% | viability, T/C [33] 27.9% | viability, T/C [34] 16.6% | viability, T/C [35] 15.7% | viability, T/C [36] 8.92%
0.207 µM: IC50 (second compound 0.1 µM)
0.177 µM: IC50 (second compound 3.16 µM)
0.168 µM: IC50 (second compound 0.316 µM)

CCc1cc2c(N3CCc4c(cc(Cn5ccnc5)cc4-c4cn(C)nc4C(F)(F)F)C3=O)ccnc2c(OC)n1 + COC1C(OC(N)=O)C(O)C(Oc2ccc3c(O)c(NC(=O)c4ccc(O)c(CC=C(C)C)c4)c(=O)oc3c2C)OC1(C)C
> 10 µM: IC50 (second compound 0.0316 µM) | IC50 (second compound 0.1 µM) | IC50 (second compound 0.316 µM) | IC50 (second compound 1 µM) | IC50 (second compound 3.16 µM) | IC50 (second compound 10 µM)
inactive: viability, T/C [1] 73.3% | viability, T/C [2] 86.7% | viability, T/C [3] 72.2% | viability, T/C [4] 94.4% | viability, T/C [5] 82.7% | viability, T/C [6] 65.9% | viability, T/C [7] 85.7% | viability, T/C [8] 77.2% | viability, T/C [9] 64.6% | viability, T/C [10] 83.8% | viability, T/C [11] 86.5% | viability, T/C [12] 64.5% | viability, T/C [13] 97.2% | viability, T/C [14] 62.6% | viability, T/C [15] 85% | viability, T/C [16] 73.2% | viability, T/C [17] 90.5% | viability, T/C [18] 70.3% | viability, T/C [19] 64.7% | viability, T/C [20] 81.9% | viability, T/C [21] 62.5% | viability, T/C [22] 63.9% | viability, T/C [23] 87.5% | viability, T/C [24] 62.1% | viability, T/C [25] 74.5% | viability, T/C [26] 85.5% | viability, T/C [27] 88.5% | viability, T/C [28] 59.5% | viability, T/C [29] 73.5% | viability, T/C [30] 72% | viability, T/C [31] 69.7% | viability, T/C [32] 67.2% | viability, T/C [33] 66.1% | viability, T/C [34] 73.6% | viability, T/C [35] 81.2% | viability, T/C [36] 72.2%

COc1cc2cc(C(=O)CCC(=O)O)sc2cc1OC + Nc1ccc(C#CCN(C(=O)Cc2ncc(C(F)(F)F)cc2C(F)(F)F)c2ccc(F)cc2)nn1
> 10 µM: IC50 (second compound 0.0316 µM) | IC50 (second compound 0.1 µM) | IC50 (second compound 0.316 µM) | IC50 (second compound 1 µM) | IC50 (second compound 3.16 µM) | IC50 (second compound 10 µM)
inactive: viability, T/C [1] 102% | viability, T/C [2] 101% | viability, T/C [3] 101% | viability, T/C [4] 93.6% | viability, T/C [5] 87.7% | viability, T/C [6] 84.5% | viability, T/C [7] 99% | viability, T/C [8] 92% | viability, T/C [9] 95.5% | viability, T/C [10] 108% | viability, T/C [11] 81.7% | viability, T/C [12] 87% | viability, T/C [13] 108% | viability, T/C [14] 102% | viability, T/C [15] 89.5% | viability, T/C [16] 106% | viability, T/C [17] 113% | viability, T/C [18] 108% | viability, T/C [19] 89.6% | viability, T/C [20] 114% | viability, T/C [21] 78.4% | viability, T/C [22] 81.7% | viability, T/C [23] 110% | viability, T/C [24] 112% | viability, T/C [25] 108% | viability, T/C [26] 90.9% | viability, T/C [27] 84.1% | viability, T/C [28] 105% | viability, T/C [29] 103% | viability, T/C [30] 81.1% | viability, T/C [31] 101% | viability, T/C [32] 95.8% | viability, T/C [33] 101% | viability, T/C [34] 103% | viability, T/C [35] 82% | viability, T/C [36] 74.5%

O=c1[nH]cc(F)c(=O)[nH]1 + COC1C(OC(N)=O)C(O)C(Oc2ccc3c(O)c(NC(=O)c4ccc(O)c(CC=C(C)C)c4)c(=O)oc3c2C)OC1(C)C
inactive: viability, T/C [1] 85.7% | viability, T/C [2] 96.3% | viability, T/C [3] 76.8% | viability, T/C [4] 71.9% | viability, T/C [5] 67.4% | viability, T/C [6] 57% | viability, T/C [7] 79.4% | viability, T/C [8] 103% | viability, T/C [9] 83.2% | viability, T/C [10] 63% | viability, T/C [11] 63.3% | viability, T/C [12] 55.9% | viability, T/C [13] 103% | viability, T/C [14] 76.7% | viability, T/C [15] 71.9% | viability, T/C [16] 72.9% | viability, T/C [17] 60.5% | viability, T/C [18] 36.5% | viability, T/C [19] 93% | viability, T/C [20] 96.4% | viability, T/C [21] 80.9% | viability, T/C [22] 52.8% | viability, T/C [23] 64.5% | viability, T/C [24] 51.1% | viability, T/C [25] 87.8% | viability, T/C [26] 82.5% | viability, T/C [27] 73.3% | viability, T/C [28] 64.4% | viability, T/C [29] 58% | viability, T/C [30] 48% | viability, T/C [31] 76.6% | viability, T/C [32] 82.4% | viability, T/C [33] 91.5% | viability, T/C [34] 67.3% | viability, T/C [35] 52.3% | viability, T/C [36] 51.3%
> 10 µM: IC50 (second compound 0.0316 µM) | IC50 (second compound 0.1 µM) | IC50 (second compound 1 µM) | IC50 (second compound 10 µM)
4.82 µM: IC50 (second compound 0.316 µM)
8.13 µM: IC50 (second compound 3.16 µM)
